Measurements from ChEMBL document CHEMBL1124587 (J Med Chem, 1989).

How the values were obtained:
[1] = Partition coefficient (logD); details: octanol/water
[2] = biological target: Glycine receptor (Rattus norvegicus); assay: Inhibition of binding of [3H]strychnine to glycine receptor
[3] = Inhibition of binding of [3H]strychnine to glycine receptor in rat

Row | Structure (SMILES) | logP [1] | also measured
1 | Nc1c(C(F)(F)F)n[nH]c1O |  | IC50 [2]: 418 µM
2 | NCC(=O)O [GLYCINE] |  | IC50 [3]: 6 µM
3 | Nc1ccccc1O [QUESTIOMYCIN B] | 0.65 | 
4 | CNCC(=O)O [SARCOSINE] |  | IC50 [3]: 350 µM

Second part, led by results:

Row | logP [1] | Structure (SMILES) | also measured
5 | 1.07 | Oc1coc2cc[nH]c12 | 
6 | 0.33 | Oc1coc2[nH]cnc12 | 
7 | 0.85 | COc1ccc(-c2[nH]nc(O)c2N)cc1 | 
